ChEMBL document CHEMBL1221220, “Transport and signaling via the amino acid binding site of the yeast Gap1 amino acid transceptor” (Nat Chem Biol, 2009)
Substitutions are numbered along the chain they refer to. Calls of active or inactive are those of the source. The rule behind the calls is not given here.

How the values were obtained:
[1] = test system: T1, General amino-acid permease GAP1 (Saccharomyces cerevisiae), P19145 [I384C]; experiment: Induction of yeast Gap1 I384C mutant-mediated trehalose activation at 2 mM in presence of 10 mM MTSEA treated before compound addition
T1 sequence (whole entry): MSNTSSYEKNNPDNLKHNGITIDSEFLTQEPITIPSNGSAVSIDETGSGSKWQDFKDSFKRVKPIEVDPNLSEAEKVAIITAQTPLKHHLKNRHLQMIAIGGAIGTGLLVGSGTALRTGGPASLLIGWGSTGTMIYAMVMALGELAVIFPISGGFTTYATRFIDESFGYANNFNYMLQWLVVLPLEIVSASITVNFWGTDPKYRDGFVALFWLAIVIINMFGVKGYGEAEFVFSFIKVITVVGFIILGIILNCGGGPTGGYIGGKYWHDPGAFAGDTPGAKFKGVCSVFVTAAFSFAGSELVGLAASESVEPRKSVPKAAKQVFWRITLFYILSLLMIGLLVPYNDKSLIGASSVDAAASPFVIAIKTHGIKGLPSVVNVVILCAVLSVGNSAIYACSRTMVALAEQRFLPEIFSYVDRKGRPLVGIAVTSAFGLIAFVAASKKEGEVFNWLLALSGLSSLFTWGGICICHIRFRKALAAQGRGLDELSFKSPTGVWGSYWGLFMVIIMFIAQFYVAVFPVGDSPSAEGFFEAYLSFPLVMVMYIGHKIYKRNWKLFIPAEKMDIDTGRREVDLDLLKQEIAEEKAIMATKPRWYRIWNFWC

[2] = test system: T2, General amino-acid permease GAP1 (Saccharomyces cerevisiae), P19145 [A405C]; experiment: Activation of yeast Gap1 A405C mutant-mediated amino acid uptake at 10 mM
T2 sequence (whole entry): T1 sequence (whole entry) with C384I, A405C

[3] = test system: T3, General amino-acid permease GAP1 (Saccharomyces cerevisiae), P19145 [A385C]; experiment: Induction of yeast Gap1 A385C mutant-mediated trehalose activation at 10 mM
T3 sequence (whole entry): T1 sequence (whole entry) with C384I, A385C

[4] = test system: General amino-acid permease GAP1 (Saccharomyces cerevisiae), P19145 [Y395C]; experiment: Inhibition of yeast Gap1 Y395C mutant-mediated trehalose activation at 10 mM
General amino-acid permease GAP1 (Saccharomyces cerevisiae), P19145 [Y395C], sequence (P19145 whole entry Y395C): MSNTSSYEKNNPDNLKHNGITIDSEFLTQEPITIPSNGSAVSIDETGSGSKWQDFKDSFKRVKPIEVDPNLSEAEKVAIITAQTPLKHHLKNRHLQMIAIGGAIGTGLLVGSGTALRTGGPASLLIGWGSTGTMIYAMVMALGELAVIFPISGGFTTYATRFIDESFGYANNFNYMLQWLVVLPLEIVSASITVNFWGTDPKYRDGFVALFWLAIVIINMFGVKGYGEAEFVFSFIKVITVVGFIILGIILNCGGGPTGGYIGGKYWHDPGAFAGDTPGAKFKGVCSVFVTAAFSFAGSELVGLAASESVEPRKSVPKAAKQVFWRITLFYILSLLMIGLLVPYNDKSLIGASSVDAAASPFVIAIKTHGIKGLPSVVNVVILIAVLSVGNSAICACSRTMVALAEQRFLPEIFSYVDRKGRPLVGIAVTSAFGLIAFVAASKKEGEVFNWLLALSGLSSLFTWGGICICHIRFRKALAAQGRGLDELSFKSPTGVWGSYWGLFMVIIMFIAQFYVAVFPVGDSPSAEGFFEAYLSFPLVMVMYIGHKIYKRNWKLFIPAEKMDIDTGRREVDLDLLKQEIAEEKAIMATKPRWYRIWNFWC

[5] = test system: T4, General amino-acid permease GAP1 (Saccharomyces cerevisiae), P19145 [L387C]; experiment: Induction of yeast Gap1 L387C mutant-mediated trehalose activation at 10 mM
T4 sequence (whole entry): T1 sequence (whole entry) with C384I, L387C

Structure (SMILES): NC(=O)NCCC[C@H](N)C(=O)O
- inhibition [1]: Active
- Activity [2]: inactive
- Activity [3]: inactive
- inhibition [4]: Active
- Activity [5]: inactive
